Assay results from patent US20100056983A1, “Treatment of cancer using photodynamic therapy” (Health Research, Inc., priority 2007, published 2010).
Marks after values point to notes of the source that are not given here.

Legend:
[1] = patients after PDT; cited from earlier work
[2] = tested on: squamous cell carcinoma of the larynx; conditions: cited from earlier work
[3] = tested on: cancers that involve epithelial type tissue in the upper respiratory system; assay: Effective photosensitizer dose for PDT of cancers in the upper respiratory system; assay type: in vivo, human
Procedure: HPPH is effective at doses of only 0.08 to 0.13 mg/kg of body weight (3.5 mg/m2 of body surface area) versus a minimum of 2 mg/kg of body weight for porfimer sodium.

[4] = tested on: high grade dysplasia / Barrett's mucosa; conditions: 2 mg/kg, 630±5 nm, 100 to 250 joules/cm, cited from earlier work
[5] = Duration of cutaneous photosensitivity after the photosensitizer; assay type: in vivo
Excerpt: Further, porfimer sodium is activated by light at 630 nm, which is suboptimal for tissue penetration. In addition, in tissues found in the upper respiratory system, side effects to normal tissue proximate to a tumor site has been greater than desirable, e.g. edema and normal tissue destruction, sometimes contributing to weeks for recovery and in some cases possibly causing permanent injury to normal proximate tissue. These drawbacks have led to a search for other photosensitizers without these limitations. This is especially important with respect to cancers that interfere with respiration, e.g. nose, mouth, pharynx, larynx and trachea. Temporary interference with digestive function can be tolerated since the body can cope without food input for a significant period of time and additionally, intravenous feeding can be readily done for temporary nutrition. The same case can of course not be made when respiration is involved since interference with respiration for even a short period is exceedingly distressful and in extreme cases can be fatal. In the case of cancers that involve the upper respiratory system it is therefore exceedingly important that damage to normal tissue be avoided. […]

[6] = Ratio of normal tissue levels of two photosensitizers in mice to tumor levels; assay type: in vivo; conditions: 24 h post injection
Excerpt: A table showing relative concentrations in normal tissue and cancer tissue for various tissue types is shown below. Ratios are shown in the form of concentration in normal tissue/concentration in tumor tissue. Lower numbers thus represent less PDT agent (HPPH or porfimer sodium) in normal tissue relative to concentration in tumor tissue. Lower concentrations in normal tissue would be expected to result in less tissue damage at tumor concentrations sufficient to destroy tumor tissue.
Ratios were obtained by dividing actual amounts of the photosensitizer in a given tissue by the amount in the tumor.
Data at 24 h post injection were used since this is the time the mice are treated by light, generally from a laser at non-thermal dose rates.

T1 recurrent lesions = conditions: 26 patients, follow up of 6 to 51 months; cited from earlier work
[7] = tested on: squamous cell carcinoma of the floor of the mouth; assay: HPPH-PDT of a patient with squamous cell carcinoma of the floor of the mouth (Example 2); assay type: in vivo, human
Procedure: A person presented with a squamous cell carcinoma of the floor of the mouth. They chose to have photodynamic therapy with HPPH (2-[1-hexyloxyethyl]-2-devinyl propheophorbide—a) rather than surgery or radiation therapy. They were infused with 4 mg/m^2 HPPH. The following day they received non-thermal low power laser light (150 mw/cm) at 665 nm in order to activate photodynamic process. The light was delivered by a single quartz fiber threaded through a laryngoscope. They received 50 Joules/cm of the 665 nm light over 5.5 min. […] This was resolved when examined 30 days after treatment.

[8] = tested on: squamous cell carcinoma on their larynx; assay: HPPH-PDT of a patient with squamous cell carcinoma on the larynx (Example 1); assay type: in vivo, human
Procedure: A person presented with a squamous cell carcinoma on their larynx. They refused surgery and radiation therapy and chose photodynamic therapy treatment using HPPH (2-[1-hexyloxyethyl]-2-devinyl pyropheophorbide a). They were infused over one hour with HPPH at 4 mg/m^2 (about 0.1 mg/kg). The following day they received non-thermal low power laser light treatment (150 mw/cm) at 665 nm in order to activate the photodynamic process. The light was delivered by a single quartz fiber treaded through a laryngoscope. They received 50 Joules/cm of the 665 nm light over 5.5 min.

[9] = normalized to 5 mg/kg from data obtained at 27 mg/kg
[10] = 4 mg/m^2 HPPH, 50 Joules/cm at 665 nm

## porfimer sodium
[1]
  Period of complete protection from sunlight and bright light because of skin photosensitization: up to 90 days
[2]; 117 patients treated for cure, follow-up to 189 months (mean 84 months)
  Recurrences: 10
[2]; 117 patients with squamous cell carcinoma of the larynx
  Adverse reactions: edema and erythema
[3]; with light exposure (HPPH 665±5 nm)
  Effective dose: ≥ 2 mg/kg of body weight
[4]; 100 patients
  Destruction of high grade dysplasia: all patients treated
  Patients with complete ablation of Barrett's mucosa: 43%
[4]; all patients treated
  Patients with esophageal strictures: 34%
[4]
  Patients with complete ablation of Barrett's mucosa with PDT treatment only: 8%
  Patients with complete ablation who required thermal ablation of small residual islands: 35%
[5]; patients after PDT
  Duration of prolonged cutaneous photosensitivity: 4-6 weeks
[6]; [9]
  Ratio concentration in normal tissue/concentration in tumor tissue: Adrenals: 6.5^###
  Ratio concentration in normal tissue/concentration in tumor tissue: Brain: 0.05^###
  Ratio concentration in normal tissue/concentration in tumor tissue: Pancreas: 4.3^###
  Ratio concentration in normal tissue/concentration in tumor tissue: Spleen: 3.1^###
  Ratio concentration in normal tissue/concentration in tumor tissue: Urinary Bladder: 5.9^###
[6]
  Ratio concentration in normal tissue/concentration in tumor tissue: Kidney: 4
  Ratio concentration in normal tissue/concentration in tumor tissue: Liver: 7
  Ratio concentration in normal tissue/concentration in tumor tissue: Lung: 1.7
  Ratio concentration in normal tissue/concentration in tumor tissue: Muscle: 0.33
  Ratio concentration in normal tissue/concentration in tumor tissue: Skin: about 0.93
  Absolute Tumor Levels: 1.05 µg/g
[6]; listed as PHOTOFRIN
  Ratio concentration in normal tissue/concentration in tumor tissue: Skin: 0.93
T1 recurrent lesions
  Complete response: 77%

## CCCCCCOC(C)c1c(C)c2cc3nc(c4c5[nH]c(cc6nc(cc1[nH]2)C(C)=C6CC)c(C)c5C(=O)C4)[C@@H](CCC(=O)O)[C@@H]3C (stereo partly shown) [HPPH, 2-(1-hexyloxyethyl)-2-devinyl pyropheophorbide-a]
[3]; with light exposure at 665±5 nm
  Effective dose per body surface area: 3.5 mg/m2 of body surface area
[5]; in vivo
  Duration of prolonged cutaneous photosensitivity: 1-2 weeks
[7]; [10]
  Effect upon normal tissue: No effect upon normal tissue
  Skin photosensitivity: no skin photosensitivity
[7]; 4 mg/m^2 HPPH, 50 Joules/cm at 665 nm next day, follow up at 6 months, confirmed by biopsy
  Response to treatment: complete response
[7]; controlled with analgesics, resolved when examined 30 days after treatment
  Adverse effects after treatment: transient moderate pain at the treatment site
[6]
  Ratio concentration in normal tissue/concentration in tumor tissue: Adrenals: 0.95
  Ratio concentration in normal tissue/concentration in tumor tissue: Brain: 0.01
  Ratio concentration in normal tissue/concentration in tumor tissue: Kidney: 0.12
  Ratio concentration in normal tissue/concentration in tumor tissue: Liver: 1.9
  Ratio concentration in normal tissue/concentration in tumor tissue: Lung: 2.7
  Ratio concentration in normal tissue/concentration in tumor tissue: Muscle: 0.095
  Ratio concentration in normal tissue/concentration in tumor tissue: Pancreas: 0.11
  Ratio concentration in normal tissue/concentration in tumor tissue: Spleen: 0.14
  Ratio concentration in normal tissue/concentration in tumor tissue: Urinary Bladder: 0.11
  Absolute Tumor Levels: 3 µg/g
[8]; [10]
  Effect upon normal tissue: No affect upon normal tissue
  Skin photosensitivity: no skin photosensitivity
[8]; 4 mg/m^2 HPPH, 50 Joules/cm at 665 nm next day, second follow up at 3 months
  Response to treatment: complete response
[8]; completely resolved at first follow up 30 days after treatment
  Adverse effects after treatment: transient edema and hoarseness of voice
